Calls of active or inactive are those of the source. No cut-off for these calls is given here.
Tests used:
A2780S [1] = assay: Induction of apoptosis in human A2780S cells assessed as late apoptotic cells level at 100 nM incubated for 48 hrs by Annexin V-FITC/PI staining based flow cytometry (reference value: 5.2%); format: functional
Tubulin (Homo sapiens) = Tubulin (Homo sapiens) (UniProt P68371+Q9H4B7+P0DPH7+P68366+Q13509+Q71U36+P04350+Q3ZCM7+P07437+P68363+Q9BQE3+Q6PEY2+Q13885+Q9BVA1+Q9BUF5); assay: Inhibition of tubulin polymerization in human A2780S cells assessed as microtubule network polymerization at 10 to 1000 nM after 24 hrs by immunofluorescence analysis; format: cell-based; conditions: dose 10-1000 nM
HeLa [2] = assay: Induction of Alpha/beta tubulin degradation in human HeLa cells pretreated with PYR-41 at 10 uM for 1 hrs followed by compound addition measured after 16 hrs by Western blot analysis; format: cell-based
HUVEC [3] = assay: Antimigratory activity against human HUVEC cells assessed as reduction in metastasis at upto 5 nM incubated for 48 hrs by wound healing assay; format: functional, cell-based; conditions: dose nM <=5, time 48.0 hrs
A2780S [4] = assay: Antitumor activity against human A2780S cells xenografted in mouse assessed as tumor growth inhibition at 40 mg/kg, iv; format: functional; conditions: read-out: TGI
A2780/Taxol [5] = assay: Induction of cell cycle arrest in human A2780T cells assessed as accumulation at G2/M phase at 100 nM measured after 48 hrs by flow cytometry analysis relative to control; format: functional
MCF7 [6] = assay: Antiproliferative activity against human MCF7 cells assessed as reduction in cell viability measured after 24 hrs by MTT assay; format: functional, cell-based; conditions: MCF7, 24 h
[7] = Toxicity in mouse xenografted with human A2780S cells assessed as body weight loss at 40 mg/kg, iv; format: organism-based; conditions: in vivo
[8] = Clearance in rat at 5 mg/kg, po; format: ADME, organism-based; conditions: in vivo
[9] = Cmax in rat plasma at 5 mg/kg, iv; format: ADME, organism-based; design: route intravenous, dose 5 mg/kg
HUVEC [10] = assay: Antimigratory activity against human HUVEC cells assessed as reduction in cell migration at upto 10 nM incubated for 24 hrs by wound healing assay; format: functional; design: scale not given: the % may be the effect or the level left; conditions: dose nM <=10
[11] = Drug resistance index, ratio of IC50 for human MCF7 cancer cell to ratio of IC50 for human NCI-ADR-RES cancer cell; format: functional
NCI/ADR-RES = assay: Cytotoxicity in human NCI-ADR-RES assessed as inhibition in cell growth measured after 24 hrs by MTT assay; format: functional, cell-based
A2780S [12] = assay: Induction of apoptosis in PTX sensitive human A2780S cells at 100 to 300 nM incubated for 48 hrs by Annexin V-FITC/PI staining based flow cytometry method; format: functional, cell-based; conditions: dose 100-300 nM
A2780S [13] = assay: Induction of apoptosis in human A2780S cells assessed as late apoptotic cells level at 30 nM incubated for 48 hrs by Annexin V-FITC/PI staining based flow cytometry (reference value: 5.2%); format: functional
HUVEC [14] = assay: Antimigratory activity against human HUVEC cells assessed as reduction in cell migration at upto 10 nM incubated for 48 hrs by wound healing assay; format: functional; design: scale not given: the % may be the effect or the level left; conditions: dose nM <=10
HUVEC [15] = assay: Antimigratory activity against human HUVEC cells assessed as reduction in metastasis at upto 5 nM incubated for 24 hrs by wound healing assay; format: functional, cell-based; conditions: dose nM <=5, time 24.0 hrs
A2780S [16] = assay: Antitumor activity against human A2780S cells xenografted in mouse assessed as tumor growth inhibition at 20 mg/kg, iv measured on three times in week; format: functional; conditions: read-out: TGI
[17] = Half life in rat at 5 mg/kg, po; format: ADME, organism-based; conditions: in vivo
NCI-H460 = assay: Antiproliferative activity against human NCI-H460 cells assessed as reduction in cell viability measured after 24 hrs by MTT assay; format: functional, cell-based; conditions: NCI-H460, 24 h
A2780S [18] = assay: Antitumor activity against human A2780S cells xenografted in mouse assessed as tumor growth inhibition at 10 mg/kg, iv measured on three times in week; format: functional; conditions: read-out: TGI
A2780/Taxol [19] = assay: Induction of cell cycle arrest in human A2780T cells assessed as accumulation at G2/M phase at 300 nM measured after 48 hrs by flow cytometry analysis relative to control; format: functional
[20] = Toxicity in mouse xenografted with human A2780S cells assessed as body weight loss at 40 mg/kg, po; format: organism-based; conditions: in vivo
HUVEC [21] = assay: Antimigratory activity against human HUVEC cells assessed as reduction in tumor cell migration at upto 5 nM incubated for 24 hrs by wound healing assay relative to control; format: functional; design: scale not given: the % may be the effect or the level left; conditions: dose nM <=5
[22] = Cmax in rat at 5 mg/kg, po; format: ADME, organism-based; design: route oral, dose 5 mg/kg; conditions: in vivo
K562 = assay: Induction of Beta tubulin degradation in human K562 cells at upto 10 uM for 16 hrs by immunoblot analysis; format: cell-based; conditions: dose microM <=10, time 16.0 hrs
[23] = Drug resistance index, ratio of IC50 for human A549 cancer cell to ratio of IC50 for human A549T cancer cell; format: functional
HeLa [24] = assay: Induction of Beta tubulin degradation in human HeLa cells at upto 10 uM for 16 hrs by immunoblot analysis; format: cell-based; conditions: dose microM <=10, time 16.0 hrs
MCF7 [25] = assay: Cytotoxicity in human MCF7 assessed as inhibition in cell growth measured after 24 hrs by MTT assay; format: functional, cell-based; conditions: MCF7, 24 h
A2780/Taxol [26] = assay: Induction of apoptosis in PTX resistant human A2780T cells at 100 to 300 nM incubated for 48 hrs by Annexin V-FITC/PI staining based flow cytometry method; format: functional, cell-based; conditions: dose 100-300 nM
HeLa [27] = assay: Induction of Alpha/beta tubulin degradation in human HeLa cells pretreated with colchicine at 10 uM for 1 hrs followed by compound addition measured after 16 hrs by Western blot analysis; format: cell-based
Raji = assay: Antiproliferative activity against human Raji cells assessed as reduction in cell viability measured after 24 hrs by MTT assay; format: functional, cell-based
A549 = assay: Cytotoxicity in human A549 assessed as inhibition in cell growth measured after 24 hrs by MTT assay; format: functional, cell-based; conditions: A549, 24 h
[28] = Volume of distribution at steady state in rat at 5 mg/kg, po; format: ADME, organism-based; conditions: in vivo
A549/TR = assay: Cytotoxicity in human A549T assessed as inhibition in cell growth measured after 24 hrs by MTT assay; format: functional, cell-based
A2780S [29] = assay: Induction of cell cycle arrest in human A2780S cells assessed as accumulation at G2/M phase at 100 nM measured after 48 hrs by flow cytometry analysis relative to control; format: functional
A2780S [30] = assay: Antitumor activity against mouse xenografted with human A2780S cell assessed as tumor growth inhibition at 40 mg/kg, po; format: functional; conditions: read-out: TGI
[31] = Drug resistance index, ratio of IC50 for human A2780S cancer cell to ratio of IC50 for human A2780T cancer cell; format: functional
[32] = Volume of distribution at steady state in rat at 5 mg/kg, iv; format: ADME, organism-based; conditions: in vivo, read-out: Vdss
[33] = Half life in rat at 5 mg/kg, iv; format: ADME, organism-based; conditions: in vivo
A2780S [34] = assay: Cytotoxicity in human A2780S assessed as inhibition in cell growth measured after 24 hrs by MTT assay; format: functional, cell-based
A2780/Taxol [35] = assay: Cytotoxicity in human A2780T assessed as inhibition in cell growth measured after 24 hrs by MTT assay; format: functional, cell-based
[36] = Clearance in rat at 5 mg/kg, iv; format: ADME, organism-based; conditions: in vivo
A2780S [37] = assay: Induction of apoptosis in human A2780S cells assessed as late apoptotic cells level at 300 nM incubated for 48 hrs by Annexin V-FITC/PI staining based flow cytometry (reference value: 5.2%); format: functional
A2780S [38] = assay: Antiproliferative activity against human A2780S cells assessed as reduction in cell viability measured after 24 hrs by MTT assay; format: functional, cell-based
HUVEC [39] = assay: Antimigratory activity against human HUVEC cells assessed as reduction in cell migration at upto 5 nM incubated for 48 hrs by wound healing assay relative to control; format: functional; design: scale not given: the % may be the effect or the level left; conditions: dose nM <=5
A2780S [40] = assay: Induction of cell cycle arrest in human A2780S cells assessed as accumulation at G2/M phase at 300 nM measured after 48 hrs by flow cytometry analysis relative to control; format: functional
[41] = Oral bioavailability in rat at 5 mg/kg; format: ADME, organism-based; conditions: in vivo
HeLa [42] = assay: Induction of Alpha/beta tubulin degradation in human HeLa cells pretreated with colchicine at 10 uM for 1 hrs by Western blot analysis; format: cell-based
HeLa [43] = assay: Induction of Alpha/beta tubulin degradation in human HeLa cells measured after 16 hrs by immunoblot analysis; format: cell-based; conditions: dose 0-50 µM
HeLa [44] = assay: Antiproliferative activity against human HeLa cells assessed as reduction in cell viability measured after 24 hrs by MTT assay; format: functional, cell-based
HeLa [45] = assay: Induction of Beta tubulin degradation in human HeLa cells pretreated with MG132 at 10 uM for 1 hrs followed by compound addition measured after 16 hrs by Western blot analysis; format: cell-based

Q: With `c1cc(CNc2cc3c(cn2)[nH]c2ccccc23)cc(Oc2ccc3c(c2)OCO3)c1` as the molecule, how does the Activity (A2780S [1]) read?
A: 25.2%

Q: What about the Activity (Tubulin (Homo sapiens)) of the same molecule?
A: inactive

Q: What about the Activity (HeLa [2]) of the same molecule?
A: Active

Q: And the Activity (HUVEC [3])?
A: Active

Q: And the inhibition in vivo at 40 mg/kg (A2780S [4])?
A: 92.4%

Q: What about the Activity (A2780/Taxol [5]) of the same molecule?
A: 72.18%

Q: What about the IC50 (MCF7 [6]) of the same molecule?
A: 9 nM

Q: And the Activity [7]?
A: Non-Toxic

Q: What about the CL/F [8] of the same molecule?
A: 84.3 mL/min/kg

Q: What about the Cmax [9] of the same molecule?
A: 189 ng/mL

Q: And the Activity (HUVEC [10])?
A: 20.8%

Q: What about the “Ratio IC50” value [11] of the same molecule?
A: 1.2

Q: What about the IC50 (NCI/ADR-RES) of the same molecule?
A: 13.5 nM

Q: What about the Activity (A2780S [12]) of the same molecule?
A: Active

Q: And the Activity (A2780S [13])?
A: 3.7%

Q: And the Activity (HUVEC [14])?
A: 28.47%

Q: And the Activity (HUVEC [15])?
A: Active

Q: And the inhibition in vivo at 20 mg/kg (A2780S [16])?
A: 71.5%

Q: And the half-life [17]?
A: 4.42 h

Q: And the IC50 (NCI-H460)?
A: 14 nM

Q: And the inhibition in vivo at 10 mg/kg (A2780S [18])?
A: 66.1%

Q: What about the Activity (A2780/Taxol [19]) of the same molecule?
A: 72.89%

Q: What about the Activity [20] of the same molecule?
A: Toxic

Q: What about the Activity (HUVEC [21]) of the same molecule?
A: 76.21%

Q: And the Cmax [22]?
A: 2600 ng/mL

Q: What about the Activity (K562) of the same molecule?
A: Active

Q: What about the “Ratio IC50” value [23] of the same molecule?
A: 1.1

Q: What about the Activity (HeLa [24]) of the same molecule?
A: Active

Q: And the IC50 (MCF7 [25])?
A: 11.3 nM

Q: And the Activity (A2780/Taxol [26])?
A: Active

Q: What about the Activity (HeLa [27]) of the same molecule?
A: Active

Q: What about the IC50 (Raji) of the same molecule?
A: 13 nM

Q: What about the IC50 (A549) of the same molecule?
A: 60.1 nM

Q: What about the Vdss [28] of the same molecule?
A: 35.26 L/kg

Q: And the IC50 (A549/TR)?
A: 63.8 nM

Q: And the Activity (A2780S [29])?
A: 55.1%

Q: What about the inhibition in vivo at 40 mg/kg (A2780S [30]) of the same molecule?
A: 34.9%

Q: What about the “Ratio IC50” value [31] of the same molecule?
A: 0.8

Q: And the Vd [32]?
A: 8.08 L/kg

Q: What about the half-life [33] of the same molecule?
A: 3.57 h

Q: And the IC50 (A2780S [34])?
A: 16.4 nM

Q: And the IC50 (A2780/Taxol [35])?
A: 13.1 nM

Q: And the clearance [36]?
A: 25.3 mL/min/kg

Q: What about the Activity (A2780S [37]) of the same molecule?
A: 30.6%

Q: What about the IC50 (A2780S [38]) of the same molecule?
A: 8 nM

Q: What about the Activity (HUVEC [39]) of the same molecule?
A: 85.07%

Q: What about the Activity (A2780S [40]) of the same molecule?
A: 79.54%

Q: What about the bioavailability [41] of the same molecule?
A: 30.7%

Q: And the Activity (HeLa [42])?
A: Active

Q: What about the Activity (HeLa [43]) of the same molecule?
A: Active

Q: What about the IC50 (HeLa [44]) of the same molecule?
A: 5 nM

Q: And the Activity (HeLa [45])?
A: Active

Source: ChEMBL document CHEMBL5042535, “Structure-Based Design and Synthesis of N-Substituted 3-Amino-β-Carboline Derivatives as Potent αβ-Tubulin Degradation Agents” (J Med Chem, 2022)
